The record followed here is the SangsterLogP compilation.

A short description of the data set: method code SF-AS, from DOI: 10.1016/j.ejmech.2011.01.053, PMID: 21334792. The note with it: pH 7.4.
With `ON=C1c2ccccc2-c2c1c(C1C=CN=C1)nc1ccc(Br)cc21` (stereo not drawn), the logD was found to be 0.23.

For the compound `CC(=O)NCC(=O)ON=C1c2ccccc2-c2c1c(N1CCN(c3ccccn3)CC1)nc1ccc(Br)cc21`, the pH-dependent lipophilicity (logD) was determined as 1.18.

Consider `CCCCCC(=O)ON=C1c2ccccc2-c2c1c(C1C=CN=C1)nc1ccc(Br)cc21` (stereo not drawn), for which the logD was 2.11.

As for `CN(C)C(=O)ON=C1c2ccccc2-c2c1c(N1CCN(c3ccccn3)CC1)nc1ccc(Br)cc21`, the logD turned out to be 2.34.

As for `O=C(C=Cc1ccco1)ON=C1C2=C(c3ccccc31)c1c(Br)cccc1NC2N1CCN(c2ccccn2)CC1` (stereo not drawn), the logD was determined as 1.43.

The compound `O=C(CCCCBr)ON=C1c2ccccc2-c2c1c(N1CCN(c3ccccn3)CC1)nc1ccc(Br)cc21` gave a logD of 1.47.

As for `CC(=O)ON=C1c2ccccc2-c2c1c(C1C=CN=C1)nc1ccc(Br)cc21` (stereo not drawn), the logD came out at 1.11.

With `CC(C)(C)OC(=O)N1CCCC1C(=O)O/N=C1\c2ccccc2-c2c1c(-n1ccnc1)nc1ccc(Br)cc21` (stereo not drawn), the logD was 1.28.

Consider `CCCCCC(=O)ON=C1c2ccccc2-c2c1c(N1CCN(c3ccc[nH]3)CC1)nc1ccc(Br)cc21`, for which the logD turned out to be 2.06.

In turn, `CCCCC(=O)ON=C1c2ccccc2-c2c1c(C1C=CN=C1)nc1ccc(Br)cc21` (stereo not drawn) gave a logD of 1.64.

Regarding `CC1(OC(=O)CC(F)(F)F)c2ccccc2-c2c1c(-n1ccnc1)nc1ccc(Br)cc21` (stereo not drawn), the logD was determined as 1.83.

Turning to `CC(C)(C)OC(=O)NCC(=O)ON=C1c2ccccc2-c2c1c(N1CCN(c3ccccn3)CC1)nc1cccc(Br)c21`, the log distribution coefficient (logD) is 0.7.

`CCCCCCC(=O)ON=C1c2ccccc2-c2c1c(C1C=CN=C1)nc1ccc(Br)cc21` (stereo not drawn) displayed a logD of 1.51.

Consider `CC(C)(C)OC(=O)NC(Cc1cccc(F)c1)ON=C1c2ccccc2-c2c1c(N1CCN(c3ccccn3)CC1)nc1ccc(Br)cc21` (stereo not drawn), for which the logD is 1.14.

`CC1(O)c2ccccc2-c2c1c(-n1ccnc1)nc1ccc(Br)cc21` (stereo not drawn): the logD was 1.73.

As for `CC(C)(C)C(=O)NC(C(=O)ON=C1c2ccccc2-c2c1c(N1CCN(c3ccccn3)CC1)nc1ccc(Br)cc21)C(C)(C)C` (stereo not drawn), the log distribution coefficient (logD) came out at 1.5.

On to `CCCC(=O)O/N=C1\c2ccccc2-c2c1c(-n1ccnc1)nc1ccc(Br)cc21`, for which the logD was 1.17.

In turn, `CCC(=O)ON=C1c2ccccc2-c2c1c(N1CCN(c3ccccn3)CC1)nc1ccc(Br)cc21` gave a logD of 2.65.

The logD is lipophilicity at a set pH, counting ionised and neutral species.
